The source made the active and inactive calls.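 How the source made its calls: active means minimum cell viability of 80% or lower across the dose range, counted as toxic; inactive means minimum cell viability above 80%.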
How the values were obtained:
[1] = viability loss in fusion assay cells – cell-based, MAGI and MAGI-HeLa co-culture, cytotoxicity control for HIV-1 fusion inhibitor project, dose response (AID 2286); conditions: MAGI-CCR5 cells viability, CellTiter-Glo ATP luminescence; for minimum viability: measured here: MAGI minimum viability across doses;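 on all read-outs here: cells exposed to compound for at least 64 h before ATP readout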;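 on minimum viability: 100% = median of DMSO vehicle wells with no ATP signal meaning 0%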;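 on viability: 100% = median of DMSO vehicle wells with no ATP signal meaning 0%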
[2] = system: MAGI-CCR5 cells viability, CellTiter-Glo ATP luminescence; experiment: as above
[3] = MAGI-HeLa co-culture viability, at 50 µM, stronger effect = lower value
[4] = measured here: MAGI + HeLa-R5-16 co-culture viability

Compound | viability [1, 3] [%] | minimum viability ([1]; at 50 µM, stronger effect = lower value) [%] | CC50 [2] [µM] | CC50 [2, 4] [µM] | further results
CC(C(=O)Nc1ccc(O)c(C(=O)O)c1)N1C(=O)/C(=C/c2cccs2)SC1=S (stereo not drawn) | 66.1 | 51.2 | 46.4 | > 50 | –
C=CC#CC[N+]1(CC#Cc2ccccc2)CCOCC1 | 70 | 76.2 | – | > 50 | –
CC(C)(C)c1ccc(S(=O)(=O)/N=C2\C=C(NS(=O)(=O)c3ccccc3)C(=O)c3ccccc32)cc1 | 51.2 | 51.5 | – | > 50 | –
COc1cc([N+](=O)[O-])cc(/C=C2/SC(=S)N(Cc3ccccc3)C2=O)c1O | 16.4 | – | 8.44 | 29.2 | minimum viability ([1]; at 25 µM, stronger effect = lower value): 5.81%
COCCN1C(=O)/C(=C/c2ccc(OCc3ccc(C(=O)O)cc3)c(OC)c2)SC1=Nc1ccccc1 | 44.3 | 41.3 | 33.8 | 35.4 | –
Cc1nn(CCc2nn[nH]n2)c2nc(-c3ccc(C4CCCCC4)cc3)cc(C(F)(F)F)c12 | 66.9 | 42.9 | 36.3 | > 50 | –
CSc1nc(SCC(=O)O)c2sc3nc(-c4ccccc4)c4c(c3c2n1)CCC4 | 70.5 | – | – | > 50 | viability ([1]; at 25 µM (top of the series)): 99.5% (inactive); minimum viability ([1]; at 1.56 µM, stronger effect = lower value): 88.2%
CCc1oc2ccccc2c1C(=O)c1cc(Br)c(O)c(Br)c1 | 52.7 | 38.8 | 43.5 | > 50 | –
COc1cc(/C=C2/SC(=S)NC2=O)ccc1OS(=O)(=O)c1ccc(C)cc1 | 28.8 | 21.6 | 12 | 28.9 | –
O=C(Nc1ccccc1Cc1ccccc1)c1ccccc1NS(=O)(=O)c1ccc(Cl)s1 | 26.2 | – | 1.68 | 5.85 | minimum viability ([1]; at 12.5 µM, stronger effect = lower value): 15.3%
Cc1ccc(-c2nc(SCC(=O)Nc3ccccc3OC(F)F)c3c(C)c(C(=O)O)sc3n2)cc1 | 58 | 36.8 | 36.4 | > 50 | –
O=C(O)C1Nc2ccc(Br)cc2C2C=CCC12 (stereo not drawn) | 74.1 | – | – | > 50 | viability ([1]; at 50 µM (top of the series)): 98% (inactive); minimum viability ([1]; at 0.2 µM, stronger effect = lower value): 90.6%
COc1ccc(-c2nn(-c3ccccc3)cc2/C=C2/SC(=S)N(CCC(=O)O)C2=O)c(C)c1 | 71.9 | 52 | 48.6 | > 50 | –
CC(C)(C)c1ccc(OCC(=O)NNC(=S)NC(=O)c2ccccc2[N+](=O)[O-])c(Br)c1 | 67.6 | 71 | – | > 50 | –
O=C(O)CN1C(=O)/C(=C\c2cc(Br)ccc2OCc2ccc(Cl)cc2)SC1=S | 52.4 | 90.5 | – | 48.6 | viability ([1]; at 50 µM (top of the series)): 90.5% (inactive)
O=C(O)c1cccc(NC(=S)N/N=C/c2ccccc2OCc2cccc(Br)c2)c1 | 28.4 | 9.27 | 22.3 | 23.9 | –
O=C(O)c1ccc(N/N=C/c2ccc(-c3cccc(Cl)c3)o2)cc1 | 10.1 | 21.6 | 10.3 | 2.83 | –
Cc1c2c(=O)n(-c3nc4ccccc4s3)nc-2cc(O)n1Cc1ccccc1 | 49.2 | 42.5 | 33.2 | > 50 | –
Cc1ccc(C)c(S(=O)(=O)/N=C2\C=C(NS(=O)(=O)c3ccccc3)C(=O)c3ccccc32)c1 | 52.8 | 40.6 | 43.1 | > 50 | –
CCn1nc([N+](=O)[O-])c(C(C#N)c2nc3cc(C(F)(F)F)ccc3s2)c(Cl)c1=O (stereo not drawn) | – | 22.2 | 27.8 | – | –

Compound | viability [1, 3] [%] | minimum viability ([1]; at 50 µM, stronger effect = lower value) [%] | CC50 [2] [µM] | CC50 [2, 4] [µM] | further results
COc1cc(/C=C2\SC(=O)N(Cc3ccc(F)cc3)C2=O)cc([N+](=O)[O-])c1O | 65.7 | 41.9 | 28.7 | > 50 | –
COc1cc(/C=C2\C(=N)N3N=C(S(C)(=O)=O)SC3=NC2=O)ccc1OCCOc1ccccc1C | 15 | 51.5 | – | 10 | –
Oc1c(Cl)cc(Cl)c(Cl)c1Cc1c(O)c(Cl)cc(Cl)c1Cl | 23 | 15.7 | 1.96 | 7.05 | –
COc1cc(/C=C2\SC(=S)NC2=O)ccc1OS(=O)(=O)c1ccccc1 | 35.9 | 24.8 | 17.9 | 40.7 | –
Nc1c(S(=O)(=O)O)cc(NC(=O)c2ccccc2)c2c1C(=O)c1ccccc1C2=O | 50.2 | – | – | 49.2 | viability ([1]; at 50 µM (top of the series)): 103% (inactive); minimum viability ([1]; at 25 µM, stronger effect = lower value): 89.2%
CN(C)S(=O)(=O)c1cccc(-c2nn(-c3ccccc3)cc2/C=C2\SC(=S)N(CC(=O)O)C2=O)c1 | 74.7 | 68.6 | – | > 50 | –
CCOc1cc(/C=C2\C(=O)N(c3cccc(C(=O)O)c3)N=C2C(F)(F)F)ccc1OCC(=O)Nc1ccccc1OC | 51.6 | – | – | 47.3 | viability ([1]; at 25 µM (top of the series)): 88.7% (inactive); minimum viability ([1]; at 6.25 µM, stronger effect = lower value): 85.3%
COc1cc(/C=C(\C#N)c2nc3ccccc3s2)cc([N+](=O)[O-])c1O | 101 | 43.3 | 38.1 | – | –
COc1ccc(S(=O)(=O)Nc2ccccc2C(=O)Nc2nc(-c3ccc(F)cc3)cs2)cc1OC | 27.5 | 18.4 | 6.51 | 14.8 | –
O=C(NN1C(=O)/C(=C\c2ccc(O)c([N+](=O)[O-])c2)SC1=S)c1ccccc1Cl | 69.9 | 62.8 | – | > 50 | –
CN(C)S(=O)(=O)c1cccc(-c2nn(-c3ccccc3)cc2/C=C2\SC(=S)NC2=O)c1 | 35.7 | 27.8 | 10 | 25.5 | –
O=C(OCC1OC(n2ncc(=O)[nH]c2=O)C(OC(=O)c2ccccc2)C1OC(=O)c1ccccc1)c1ccccc1 (stereo not drawn) | 111 | 44 | 42.2 | – | –
COc1ccc(C(=O)/C=C/c2ccc(-c3ccccc3)cc2)cc1CSCC(=O)O | 5.69 | 3.11 | 13 | 23.2 | –
O=C(O)c1ccccc1NC(=O)c1ccccc1Nc1ccccc1 | 58.2 | 47.6 | 42.7 | > 50 | –
O=C(O)c1cccc2c1NC(c1cccc([N+](=O)[O-])c1)C1CC(Sc3ccccc3[N+](=O)[O-])C(Cl)C21 (stereo not drawn) | 48.4 | 53.6 | – | 47.9 | –
O=C(O)CCCCCN1C(=O)/C(=C\c2cn(-c3ccccc3)nc2-c2cccs2)SC1=S | 54.7 | 47.2 | 44.3 | > 50 | –
O=C1NC(=Nc2ccccc2Cl)S/C1=C\c1cccc([N+](=O)[O-])c1O | 73.6 | 72.6 | – | > 50 | –
O=C(O)C1Nc2c(O)cccc2C2C=CCC12 (stereo not drawn) | 21.6 | 23 | 18.6 | 22.4 | –
O=C(O)COc1ccc(/C=C/C(=O)c2ccc(C3CCCCC3)cc2)cc1 | 76.3 | 48.7 | 49.7 | > 50 | –
COc1cccc(OCCOc2ccc(/C=C3\C(=N)N4N=C(S(C)(=O)=O)SC4=NC3=O)cc2OC)c1 | 38 | – | – | 35.8 | viability ([1]; at 50 µM (top of the series)): 97.2% (inactive); minimum viability ([1]; at 3.13 µM, stronger effect = lower value): 91.2%

— PubChem BioAssay AID2286 (Southern Research Specialized Biocontainment Screening …, 2010)
